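The compound was tested at five concentrations on cells cultured in 96-well plates, with a 48-hour exposure period. GI50 is the concentration that inhibits growth by half. TGI is the concentration that stops growth completely.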
Experiments:
Assay in all cases: inhibition of tumour cell growth, NCI panel, 48 h
[1] = tested on: SK-OV-3 ovarian
[2] = tested on: SNB-19 CNS
[3] = tested on: 786-0 renal
[4] = tested on: KM12 colon
[5] = tested on: HS 578T breast
[6] = tested on: HCT-116 colon
[7] = tested on: HCC-2998 colon
[8] = tested on: MDA-MB-435
[9] = tested on: A549 NSCLC
[10] = tested on: SN12C renal
[11] = tested on: K-562 leukemia
[12] = tested on: M14 melanoma
[13] = tested on: NCI/ADR-RES ovarian
[14] = tested on: SR leukemia
[15] = tested on: SK-MEL-28 melanoma
[16] = tested on: NCI-H460 lung
[17] = tested on: NCI-H522 lung
[18] = tested on: TK-10 renal
[19] = tested on: SNB-75 CNS
[20] = tested on: SF-268 CNS
[21] = tested on: LOX IMVI melanoma
[22] = tested on: RPMI-8226 leukemia
[23] = tested on: DU-145 prostate
[24] = tested on: OVCAR-4 ovarian
[25] = tested on: HOP-62 NSCLC
[26] = tested on: CAKI-1 renal
[27] = tested on: HOP-92 NSCLC
[28] = tested on: SW-620 colon
[29] = tested on: IGROV1 ovarian
[30] = tested on: UACC-62 melanoma
[31] = tested on: HL-60(TB) leukemia
[32] = tested on: MALME-3M melanoma
[33] = tested on: CCRF-CEM leukemia
[34] = tested on: RXF 393 renal
[35] = tested on: T-47D breast
[36] = tested on: UO-31 renal
[37] = tested on: SF-539 CNS
[38] = tested on: PC-3 prostate
[39] = tested on: MOLT-4 leukemia
[40] = tested on: EKVX NSCLC
[41] = tested on: ACHN renal
[42] = tested on: SK-MEL-5 melanoma
[43] = tested on: NCI-H226 lung
[44] = tested on: HCT-15 colon
[45] = tested on: COLO 205 colon
[46] = tested on: HT29 colon
[47] = tested on: MCF7 breast
[48] = tested on: A498 renal
[49] = tested on: BT-549 breast
[50] = tested on: SF-295 CNS
[51] = tested on: OVCAR-5 ovarian
[52] = tested on: SK-MEL-2 melanoma
[53] = tested on: U251 CNS
[54] = tested on: OVCAR-8 ovarian
[55] = tested on: NCI-H23 lung
[56] = tested on: MDA-MB-231 breast

SMILES: Oc1ccc(-c2nnc(SCc3ccc(O)c4ncccc34)n2-c2ccccc2)cc1
- GI50 [1]: 496 nM
- TGI [1]: > 25900 nM
- GI50 [2]: 385 nM
- TGI [2]: > 100000 nM
- GI50 [3]: 770 nM
- TGI [3]: 11100 nM
- GI50 [4]: 372 nM
- TGI [4]: > 100000 nM
- GI50 [5]: 533 nM
- TGI [5]: > 100000 nM
- GI50 [6]: 158 nM
- TGI [6]: > 100000 nM
- GI50 [7]: 620 nM
- TGI [7]: > 63400 nM
- GI50 [8]: 380 nM
- TGI [8]: > 100000 nM
- GI50 [9]: 614 nM
- TGI [9]: > 100000 nM
- GI50 [10]: 348 nM
- TGI [10]: > 100000 nM
- GI50 [11]: 290 nM
- TGI [11]: > 100000 nM
- GI50 [12]: 284 nM
- TGI [12]: 1570 nM
- GI50 [13]: 207 nM
- GI50 [14]: 325 nM
- TGI [14]: > 100000 nM
- GI50 [15]: 621 nM
- TGI [15]: > 100000 nM
- GI50 [16]: 152 nM
- TGI [16]: 6280 nM
- GI50 [17]: 330 nM
- TGI [17]: 2850 nM
- GI50 [18]: 502 nM
- TGI [18]: > 100000 nM
- GI50 [19]: 1500 nM
- TGI [19]: > 81000 nM
- GI50 [20]: 465 nM
- TGI [20]: > 100000 nM
- GI50 [21]: 377 nM
- TGI [21]: 6930 nM
- GI50 [22]: 391 nM
- TGI [22]: > 100000 nM
- GI50 [23]: 438 nM
- TGI [23]: > 100000 nM
- GI50 [24]: 566 nM
- TGI [24]: > 100000 nM
- GI50 [25]: 521 nM
- TGI [25]: > 100000 nM
- GI50 [26]: 448 nM
- TGI [26]: > 100000 nM
- GI50 [27]: 28.9 nM
- TGI [27]: 845 nM
- GI50 [28]: 397 nM
- TGI [28]: > 100000 nM
- GI50 [29]: 471 nM
- TGI [29]: > 88300 nM
- GI50 [30]: 462 nM
- TGI [30]: 3980 nM
- GI50 [31]: 292 nM
- TGI [31]: 2730 nM
- GI50 [32]: 902 nM
- TGI [32]: > 29100 nM
- GI50 [33]: 327 nM
- TGI [33]: > 100000 nM
- GI50 [34]: 881 nM
- TGI [34]: > 100000 nM
- GI50 [35]: 600 nM
- TGI [35]: > 100000 nM
- GI50 [36]: 261 nM
- TGI [36]: 4260 nM
- GI50 [37]: 528 nM
- TGI [37]: > 44300 nM
- GI50 [38]: 433 nM
- TGI [38]: > 100000 nM
- GI50 [39]: 394 nM
- TGI [39]: > 100000 nM
- GI50 [40]: 596 nM
- TGI [40]: > 100000 nM
- GI50 [41]: 365 nM
- TGI [41]: > 100000 nM
- GI50 [42]: 371 nM
- TGI [42]: 1840 nM
- GI50 [43]: 718 nM
- TGI [43]: > 85800 nM
- GI50 [44]: 164 nM
- TGI [44]: > 100000 nM
- GI50 [45]: 3020 nM
- TGI [45]: > 100000 nM
- GI50 [46]: 3850 nM
- TGI [46]: > 100000 nM
- GI50 [47]: 140 nM
- TGI [47]: > 100000 nM
- GI50 [48]: 570 nM
- TGI [48]: 5840 nM
- GI50 [49]: 606 nM
- TGI [49]: > 25800 nM
- GI50 [50]: 387 nM
- TGI [50]: > 100000 nM
- GI50 [51]: 1320 nM
- TGI [51]: > 100000 nM
- GI50 [52]: 828 nM
- TGI [52]: > 36900 nM
- GI50 [53]: 194 nM
- TGI [53]: > 100000 nM
- GI50 [54]: 233 nM
- TGI [54]: > 100000 nM
- GI50 [55]: 482 nM
- TGI [55]: > 100000 nM
- GI50 [56]: 458 nM
- TGI [56]: > 100000 nM

Source: PubChem BioAssay (NCI)
